Data reported in patent US20070161542A1, “Ptb1b photoprobes” (priority 2003, published 2007).

Key:
[1] = Photolysis of the probes in water (time course, quantum yield); format: physicochemical; conditions: chemical actinometry; absorbance at 345 and 350 nm for Examples 9 and 1
Description: A time course for photolysis of the probes in water was determined by measuring product formation by HPLC-MS. […] Based on the time course of photolysis of an aqueous probe with a 40 W lamp, t1/2 values of about 2 min were measured using the 40 W lamp. When a 450 W lamp was used, the t1/2 was reduced to less than 30 sec.
The quantum yield of the photoprobes was determined from the number of photons absorbed and the number of moles of photolysis product that were formed. The number of photons absorbed was determined by chemical actinometry, using the method of Parker (26). The moles of irradiated product produced over time was measured by measuring the absorbance at 345 and 350 nm for Examples 9 and 1 respectively. The quantum yield was calculated to be 0.83 and 0.74 for Examples 9 and 1 respectively.

[2] = molecular target: T1, full-length PTP1B in SF9 lysate (Homo sapiens, UniProt P18031); assay: Photolabeling of SF9 cell lysate overexpressing PTP1B; format: binding; conditions: PTP1B 1% wt/wt protein
T1 construct: Infected SF9 cell lysate expressing full-length PTP1B (as a flag fusion); made in house; host or cells: SF9 insect cells (infected), used as crude lysate
T1 sequence (P18031 1-435): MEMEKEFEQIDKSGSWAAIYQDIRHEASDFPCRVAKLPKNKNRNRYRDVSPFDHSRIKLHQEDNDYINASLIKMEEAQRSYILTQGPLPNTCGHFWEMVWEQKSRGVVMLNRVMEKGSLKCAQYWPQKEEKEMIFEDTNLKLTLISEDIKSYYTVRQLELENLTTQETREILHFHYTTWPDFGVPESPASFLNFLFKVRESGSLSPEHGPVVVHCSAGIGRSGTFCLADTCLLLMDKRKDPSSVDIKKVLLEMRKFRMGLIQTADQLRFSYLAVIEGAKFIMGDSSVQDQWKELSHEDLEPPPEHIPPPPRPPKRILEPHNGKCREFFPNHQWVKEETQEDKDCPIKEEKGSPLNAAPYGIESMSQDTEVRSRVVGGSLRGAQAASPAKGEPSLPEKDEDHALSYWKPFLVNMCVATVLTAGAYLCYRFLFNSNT
Source text: Protein tyrosine phosphatases used in this study were expressed and purified using published procedures, as follows: (a) Flag-PTP1B (residues 1-320 as a flag fusion), Huyer et al. (29). (b) Flag-TCPTP (residues 1-281 as a flag fusion), Asante-Appiah et al. (30). (c) Flag-CD45 (residues 556-1268 as a flag fusion), Wang et al. (31). (d) Mutant C215S-PTP1B (residues 1-320 as a gst fusion), Skorey et al. (28). (e) Infected SF9 cell lysate expressing full-length PTP1B (as a flag fusion), Cromlish et al. (25). For studies using H2O2-inactivated Flag-PTP1B, 100 μl of 2 μg/ml PTP1B was incubated with 100 μl of 1 mM or 20 mM H2O2 for 15 min to obtain 50% or 100% inactivated enzyme respectively as determined by the enzyme kinetic assay.
All photolabeling experiments with purified enzymes or SF9 cell lysate overexpressing PTP1B were conducted in 96-well polystyrene plates in 50 μl BisTris buffer (50 mM BisTris pH 6.3, 2 mM EDTA, 1 mM DMH) containing enzyme (in BisTris buffer with 20% glycerol, 0.01% Triton X-100) or lysate and Example 9 (in water) or Example 1 (in water) at various concentrations and shaken for 1 min at room temperature. […] Autoradiography of the dried, coommassie-stained gel was done using Phosphorimaging (Molecular Devices) or by x-ray film (BioMax MS with intensifier screen, Kodak) and quantified by densitometry. […]

quantum yield [1]: 0.83
labeling of SF9 overexpressed PTP1B [2]: labeled SF9 overexpressed PTP1B
SMILES: NC(=O)[C@H](Cc1ccc(C(F)(F)P(=O)(O)O)cc1)NC(=O)[C@H](Cc1ccc(C(F)(F)P(=O)(O)O)cc1)NC(=O)c1cc(I)cc(C2(C(F)(F)F)N=N2)c1 [Example 9, 4-(Difluoro(phosphono)methyl)-N-(3-iodo-5-(3-(trifluoromethyl)-3H-diaziren-3-yl)benzoyl)-L-phenylalanyl-4-(difluoro(phosphono)methyl)-L-phenylalaninamide]
